In patent US10189859B2, “Derivatives of 6-(2,3-dichlorophenyl)-1,2,4-triazin-5-amine” (Nektar Therapeutics, priority 2013, dated 2019):
Several values for one entry are separate records, joined by “and”; a condition that tells them apart may be missing. Equal values may be shown once. Read-outs that look alike come from different tables or passages of the source.

Biological target: Nav1.7 sodium channels (human SCN9A gene) (Homo sapiens (Human), UniProt Q15858)
Assay: Automated patch clamp (IonWorks Barracuda) of Nav1.7 stably expressed in CHO cells
Format: cell-based
Protocol: The potencies of the compounds provided herein to block specific Na+ channels was measured using automated patch clamp electrophysiologically of Nav1.7 sodium channels (human SCN9A gene) stably expressed in CHO cells using the IonWorks™ Barracuda system. Currents were measured from the whole cell patch configuration. From a holding potential of −90 mV, membranes were subjected to a 200 ms pre-pulse to −120 mV, then pulsed to 0 mV to measure blockade of the tonic (resting) state. Inactivated state block was elicited by repolarization to −100 mV (20 ms pulse duration), followed by depolarization to 0 mV (20 ms pulse duration). Peak inward Na+ currents were measured in the presence of vehicle or various concentrations of the test compound to determine the percent block of current. Concentration-response relationships were used to calculate IC50 values for the illustrative compounds.

[1] = read-out: Inactivated state IC50
[2] = inactivated state block, CHO cells, read-out: Inactivated state IC50
[3] = tonic (resting) state block, CHO cells, read-out: Tonic state IC50

Sequence of Nav1.7 sodium channels (human SCN9A gene) (Q15858 whole entry): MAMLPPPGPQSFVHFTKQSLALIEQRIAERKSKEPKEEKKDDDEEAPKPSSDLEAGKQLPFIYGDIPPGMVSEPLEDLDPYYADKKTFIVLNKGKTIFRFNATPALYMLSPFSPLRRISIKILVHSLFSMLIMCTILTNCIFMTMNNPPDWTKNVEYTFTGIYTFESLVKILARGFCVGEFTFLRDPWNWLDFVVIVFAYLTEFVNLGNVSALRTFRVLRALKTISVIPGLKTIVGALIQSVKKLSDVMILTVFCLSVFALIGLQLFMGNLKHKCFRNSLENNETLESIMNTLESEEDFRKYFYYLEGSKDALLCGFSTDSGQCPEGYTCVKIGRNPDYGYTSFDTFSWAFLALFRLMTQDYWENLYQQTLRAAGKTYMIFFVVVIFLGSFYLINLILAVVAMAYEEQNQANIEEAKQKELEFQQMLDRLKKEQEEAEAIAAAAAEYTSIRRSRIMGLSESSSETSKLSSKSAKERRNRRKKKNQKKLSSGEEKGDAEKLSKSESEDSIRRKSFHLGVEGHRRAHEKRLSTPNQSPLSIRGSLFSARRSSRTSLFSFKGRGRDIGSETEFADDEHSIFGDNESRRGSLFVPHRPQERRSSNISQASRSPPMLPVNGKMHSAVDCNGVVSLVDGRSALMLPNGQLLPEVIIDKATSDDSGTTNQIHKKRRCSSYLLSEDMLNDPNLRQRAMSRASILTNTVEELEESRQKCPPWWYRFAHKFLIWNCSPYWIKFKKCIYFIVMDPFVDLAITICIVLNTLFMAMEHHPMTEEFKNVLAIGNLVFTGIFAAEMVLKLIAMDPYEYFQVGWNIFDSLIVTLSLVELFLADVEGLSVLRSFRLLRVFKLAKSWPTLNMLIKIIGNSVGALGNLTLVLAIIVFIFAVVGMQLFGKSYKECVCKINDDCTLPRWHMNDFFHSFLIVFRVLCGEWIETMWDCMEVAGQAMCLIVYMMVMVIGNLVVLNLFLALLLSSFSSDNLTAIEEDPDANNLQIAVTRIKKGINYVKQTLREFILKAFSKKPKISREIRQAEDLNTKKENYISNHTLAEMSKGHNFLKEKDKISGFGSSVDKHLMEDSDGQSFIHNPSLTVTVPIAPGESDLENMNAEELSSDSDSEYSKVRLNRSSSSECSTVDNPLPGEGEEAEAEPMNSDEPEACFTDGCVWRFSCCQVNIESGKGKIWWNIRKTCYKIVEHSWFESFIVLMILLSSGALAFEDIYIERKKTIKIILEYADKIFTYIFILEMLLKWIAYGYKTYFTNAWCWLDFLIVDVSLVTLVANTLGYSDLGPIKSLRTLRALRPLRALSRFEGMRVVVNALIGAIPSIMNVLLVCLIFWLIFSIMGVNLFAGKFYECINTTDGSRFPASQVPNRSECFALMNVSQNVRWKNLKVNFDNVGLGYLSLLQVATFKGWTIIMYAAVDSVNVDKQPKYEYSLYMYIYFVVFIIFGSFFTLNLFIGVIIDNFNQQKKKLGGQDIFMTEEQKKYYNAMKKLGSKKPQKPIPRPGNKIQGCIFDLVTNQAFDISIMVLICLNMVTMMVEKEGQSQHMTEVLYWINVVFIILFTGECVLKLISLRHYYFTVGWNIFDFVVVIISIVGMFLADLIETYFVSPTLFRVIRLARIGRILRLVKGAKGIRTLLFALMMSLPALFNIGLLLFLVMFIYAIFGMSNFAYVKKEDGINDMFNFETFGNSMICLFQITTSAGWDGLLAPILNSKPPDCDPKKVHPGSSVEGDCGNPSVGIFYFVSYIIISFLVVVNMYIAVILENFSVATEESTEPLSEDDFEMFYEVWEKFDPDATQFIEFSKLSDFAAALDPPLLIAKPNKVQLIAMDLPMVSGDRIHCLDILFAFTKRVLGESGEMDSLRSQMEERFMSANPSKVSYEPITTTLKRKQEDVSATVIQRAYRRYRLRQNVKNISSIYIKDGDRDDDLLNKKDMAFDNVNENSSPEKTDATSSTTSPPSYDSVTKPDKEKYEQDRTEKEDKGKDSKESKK

SMILES | IC50 [2] | IC50 [3] | IC50 [1] [µM] | IC50 (read-out: Tonic state IC50) [µM]
NC(=O)CNCCOCCNc1nnc(-c2cccc(Cl)c2Cl)c(N)n1 [Compound 194, 2-((2-(2-((5-amino-6-(2,3-dichlorophenyl)-1,2,4-triazin-3-yl)amino)ethoxy)ethyl)amino)acetamide] |  |  | > 300 | > 200
CC(C)(C)OCC(O)CN1CCN(c2nnc(-c3cccc(Cl)c3Cl)c(N)n2)C[C@H]1CO (stereo partly drawn) [Compound 136, 1-((S)-4-(5-amino-6-(2,3-dichlorophenyl)-1,2,4-triazin-3-yl)-2-(hydroxymethyl)piperazin-1-yl)-3-(tert-butoxy)propan-2-ol] | 86.6 µM and 92.7 µM | > 200 µM |  | 
COC(=O)CNCCOCCNc1nnc(-c2cccc(Cl)c2Cl)c(N)n1 [Compound 199, methyl 2-((2-(2-((5-amino-6-(2,3-dichlorophenyl)-1,2,4-triazin-3-yl)amino)ethoxy)ethyl)amino)acetate] |  |  | > 300 | > 200
COC(=O)COCCOCCNc1nnc(-c2cccc(Cl)c2Cl)c(N)n1 [Compound 197, methyl 2-(2-(2-((5-amino-6-(2,3-dichlorophenyl)-1,2,4-triazin-3-yl)amino)ethoxy)ethoxy)acetate] | < 50 µM | > 200 µM |  | 
Nc1nc(N2CCN(CC(O)CO)C[C@H]2CO)nnc1-c1cccc(Cl)c1Cl (stereo partly drawn) [Compound 140, 3-((S)-4-(5-amino-6-(2,3-dichlorophenyl)-1,2,4-triazin-3-yl)-3-(hydroxymethyl)piperazin-1-yl)propane-1,2-diol] |  |  | > 300 | > 200
COCCOCCN(C)CCN(C)c1nnc(-c2cccc(Cl)c2Cl)c(N)n1 [Compound 193, 6-(2,3-dichlorophenyl)-N3-(2-((2-(2-methoxyethoxy)ethyl)(methyl)amino)ethyl)-N3-methyl-1,2,4-triazine-3,5-diamine] | < 50 µM | 62.6 µM |  | 
COCCOCCOCCN1CCN(c2nnc(-c3cc(F)cc(Cl)c3Cl)c(N)n2)CC1 [Compound 104, 3-N-(4′-N-mPEG3-piperazinyl) 5-fluoro lamotrigine] | < 50 µM | > 200 µM |  | 
CN(CCO)c1nnc(-c2cccc(Cl)c2Cl)c(N)n1 [Compound 185, 2-((5-amino-6-(2,3-dichlorophenyl)-1,2,4-triazin-3-yl)(methyl)amino)ethanol] |  |  | 176 | > 200
Nc1nc(N2CCN(C[C@H](O)COC3CCC3)CC2)nnc1-c1cccc(Cl)c1Cl [Compound 84, (2S)-1-{4-[5-Amino-6-(2,3-dichlorophenyl)-1,2,4-triazin-3-yl]piperazin-1-yl}-3-(cyclobutyloxy)propan-2-ol] | < 50 µM | 192 µM |  | 
CC(CS(=O)(=O)CCO)Nc1nnc(-c2cccc(Cl)c2Cl)c(N)n1 (stereo not shown) [Compound 93, 2-((2-((5-amino-6-(2,3-dichlorophenyl)-1,2,4-triazin-3-yl)amino)propyl)sulfonyl)ethanol] | > 300 µM | > 200 µM |  | 
CN(CCNc1nnc(-c2cccc(Cl)c2Cl)c(N)n1)C[C@H](O)C(F)(F)F [Compound 148, (S)-3-((2-((5-amino-6-(2,3-dichlorophenyl)-1,2,4-triazin-3-yl)amino)ethyl)(methyl)amino)-1,1,1-trifluoropropan-2-ol] | < 50 µM | 149 µM |  | 

The next lines start with results.

IC50 [2] | IC50 [3] | SMILES | IC50 [1] [µM] | IC50 (read-out: Tonic state IC50) [µM]
< 50 µM | 151 µM and 179 µM | CN(CCNC[C@H](O)C(F)(F)F)c1nnc(-c2cccc(Cl)c2Cl)c(N)n1 [Compound 147, (S)-3-((2-((5-amino-6-(2,3-dichlorophenyl)-1,2,4-triazin-3-yl)(methyl)amino)ethyl)amino)-1,1,1-trifluoropropan-2-ol] |  | 
> 300 µM | > 200 µM | CN1CCN(CCOCCNc2nnc(-c3cccc(Cl)c3Cl)c(N)n2)CC1 [Compound 169, 6-(2,3-dichlorophenyl)-N3-(2-(2-(4-methylpiperazin-1-yl)ethoxy)ethyl)-1,2,4-triazine-3,5-diamine] |  | 
214 µM | > 200 µM | COCCNCCOCCNc1nnc(-c2cccc(Cl)c2Cl)c(N)n1 [Compound 173, 6-(2,3-dichlorophenyl)-N3-(2-(2-((2-methoxyethyl)amino)ethoxy)ethyl)-1,2,4-triazine-3,5-diamine] |  | 
> 300 µM | > 200 µM | COCCOCCOCC(=O)N1CCN(c2nnc(-c3cccc(Cl)c3Cl)c(N)n2)CC1 [Compound 105, 3-N-mPEG2-CM-piperazinyl lamotrigine] |  | 
298 µM | > 200 µM | COCCOCCOCC(COCCOCCOC)OCCNc1nnc(-c2cccc(Cl)c2Cl)c(N)n1 [Compound 180, 6-(2,3-dichlorophenyl)-N3-(10-((2-(2-methoxyethoxy)ethoxy)methyl)-2,5,8,11-tetraoxatridecan-13-yl)-1,2,4-triazine-3,5-diamine] |  | 
> 300 µM | > 200 µM | Nc1nc(N2CCNC[C@H]2CO)nnc1-c1cccc(Cl)c1Cl [Compound 135] |  | 
> 150 µM | > 150 µM | Nc1nc(N2CCN[C@@H](CO)C2)nnc1-c1cccc(Cl)c1Cl [Compound 122, (R)-5-amino-3-N-[3-(hydroxymethyl)piperazin-1-yl] lamotrigine diHCl] |  | 
< 50 µM | 70 µM | Nc1nc(N2CCN(C[C@H](O)COCC3CCC3)CC2)nnc1-c1cccc(Cl)c1Cl [Compound 80, (2S)-1-{4-[5-Amino-6-(2,3-dichlorophenyl)-1,2,4-triazin-3-yl]piperazin-1-yl}-3-(cyclobutylmethoxy)propan-2-ol] |  | 
244 µM | > 200 µM | CN(CCOCCNc1cnc(-c2cccc(Cl)c2Cl)c(N)n1)CC(N)=O [Compound 191, 2-((2-(2-((6-amino-5-(2,3-dichlorophenyl)pyrazin-2-yl)amino)ethoxy)ethyl)-(methyl)amino)acetamide] |  | 
> 300 µM | > 200 µM | Nc1nc(NC(CO)CO)nnc1-c1cccc(Cl)c1Cl [Compound 20, 2-((5-Amino-6-(2,3-dichlorophenyl)-1,2,4-triazin-3-yl)amino)propane-1,3-diol] |  | 
> 300 µM | > 200 µM | COCCOCCOCC(=O)N1CCC(Nc2nnc(-c3cccc(Cl)c3Cl)c(N)n2)CC1 [Compound 107, 3-N-(4′-N-mPEG2-CM piperidinyl) lamotrigine] |  | 
< 50 µM | > 200 µM | Nc1nc(N2CCN(CC(F)(F)F)CC2)nnc1-c1cccc(Cl)c1Cl [Compound 87, 6-(2,3-dichlorophenyl)-3-(4-(2,2,2-trifluoroethyl)piperazin-1-yl)-1,2,4-triazin-5-amine] |  | 
> 300 µM | > 200 µM | COC[C@@H](O)CNC1CN(c2nnc(-c3cccc(Cl)c3Cl)c(N)n2)C1 [Compound 163, (S)-1-((1-(5-amino-6-(2,3-dichlorophenyl)-1,2,4-triazin-3-yl)azetidin-3-yl)amino)-3-methoxypropan-2-ol] |  | 
< 50 µM | 87.9 µM | CC(C)(C)OC(=O)COCCN1CCN(c2nnc(-c3cccc(Cl)c3Cl)c(N)n2)CC1 [Compound 203, tert-butyl 2-(2-(4-(5-amino-6-(2,3-dichlorophenyl)-1,2,4-triazin-3-yl)piperazin-1-yl)ethoxy)acetate] |  | 
< 50 µM | > 200 µM | COCCOCCOCCN1C(C)CN(c2nnc(-c3cccc(Cl)c3Cl)c(N)n2)CC1C (stereo not shown) [Compound 111, 3-N-(4-N-mPEG3-3,5-dimethylpiperazinyl) lamotrigine] |  | 
